According to ChEMBL document CHEMBL1201862, “PubChem BioAssay data set” (2004):
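96-well plates; 48 h exposure; 5 concentrations. Endpoints by linear interpolation between flanking doses. Not reached: highest tested concentration assigned. Here, GI50 denotes the concentration required for 50% inhibition of growth.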 Active and inactive are the calls of the source. Rule as the data show it: active = GI50 up to about 1.1 µM and inactive = higher.

Legend:
Test in all cases: inhibition of tumour cell growth, NCI panel, 48 h
[1] = test system: OVCAR-8
[2] = test system: 786-0
[3] = test system: K562
[4] = test system: M14
[5] = test system: SK-MEL-28
[6] = test system: SF-268
[7] = test system: MOLT-4
[8] = test system: LOX IMVI
[9] = test system: NCI-H460
[10] = test system: SK-OV-3
[11] = test system: SW-620
[12] = test system: HOP-92
[13] = test system: HT-29
[14] = test system: SF-295
[15] = test system: OVCAR-5
[16] = test system: SNB-75
[17] = test system: HCT-15
[18] = test system: COLO 205
[19] = test system: MCF7
[20] = test system: DU-145

Compound	GI50 [1]	GI50 [2]	GI50 [3]	GI50 [4]	GI50 [5]	GI50 [6]	GI50 [7]	GI50 [8]	GI50 [9]	GI50 [10]	GI50 [11]	GI50 [12]	GI50 [13]	GI50 [14]	GI50 [15]	GI50 [16]	GI50 [17]	GI50 [18]	GI50 [19]	GI50 [20]
CCOC(=O)C(=O)Nc1ccccc1CC	> 100 µM (inactive)	> 100 µM (inactive)	> 100 µM (inactive)	> 100 µM (inactive)	> 100 µM (inactive)	> 100 µM (inactive)	> 100 µM (inactive)	> 100 µM (inactive)	> 100 µM (inactive)	> 100 µM (inactive)	> 100 µM (inactive)	> 100 µM (inactive)	> 100 µM (inactive)	> 100 µM (inactive)	> 100 µM (inactive)					
COc1cc2oc(-c3ccc(O)cc3)cc(=O)c2c(O)c1C1OC(CO)C(O)C(O)C1O (centres undefined)	> 100 µM (inactive)	> 100 µM (inactive)	> 100 µM (inactive)	> 100 µM (inactive)	> 100 µM (inactive)	> 100 µM (inactive)	> 100 µM (inactive)	> 100 µM (inactive)	> 100 µM (inactive)	> 100 µM (inactive)	11.5 µM (inactive)		> 100 µM (inactive)	> 100 µM (inactive)	> 100 µM (inactive)	> 100 µM (inactive)	> 100 µM	> 100 µM (inactive)		
CC1=C(C(=O)Nc2ccccc2)C(c2ccc3c(c2)OCO3)C(C(=O)Nc2ccccc2)=C(C)N1	37.9 µM (inactive)	36.3 µM (inactive)	17.5 µM (inactive)	33.7 µM (inactive)	31.6 µM (inactive)	25.3 µM (inactive)	19 µM (inactive)	24.4 µM (inactive)	43.9 µM (inactive)	47.3 µM (inactive)	3.5 µM (inactive)		37.2 µM (inactive)	35.3 µM (inactive)	> 10 µM (inactive)		33 µM	42.7 µM (inactive)		
OCc1ccccc1C1CSCSC1	> 100 µM (inactive)		> 100 µM (inactive)		> 100 µM (inactive)	> 100 µM (inactive)	> 100 µM (inactive)	> 100 µM (inactive)	> 100 µM (inactive)	> 100 µM (inactive)	> 100 µM (inactive)		> 100 µM (inactive)	> 100 µM (inactive)		> 100 µM (inactive)	> 100 µM			
CCCCCCCCCC/C=C/C=O	> 100 µM (inactive)		> 100 µM (inactive)	> 100 µM (inactive)	> 100 µM (inactive)	> 100 µM (inactive)	70.3 µM (inactive)	> 100 µM (inactive)	> 100 µM (inactive)	> 100 µM (inactive)	> 100 µM (inactive)	> 100 µM (inactive)	> 100 µM (inactive)	> 100 µM (inactive)	> 100 µM (inactive)	> 100 µM (inactive)	> 100 µM	> 100 µM (inactive)		
COc1ccc(Nc2nc3ccccc3nc2-c2cccs2)cc1	> 100 µM (inactive)	75 µM (inactive)	> 100 µM (inactive)	47.1 µM (inactive)	> 100 µM (inactive)	> 100 µM (inactive)	> 100 µM (inactive)	> 100 µM (inactive)	79.4 µM (inactive)	40.5 µM (inactive)	> 100 µM (inactive)	51.5 µM (inactive)		70.6 µM (inactive)	> 100 µM (inactive)	28.6 µM (inactive)	> 100 µM	> 100 µM (inactive)		
N#CCC(=O)N/N=C1/C(=O)N(c2ccc(Cl)cc2)C(=O)C(=O)C1c1nc2ccccc2s1 (centres undefined)	95.9 µM (inactive)	> 100 µM (inactive)		> 100 µM (inactive)	> 100 µM (inactive)	55.5 µM (inactive)		38.2 µM (inactive)		> 100 µM (inactive)	> 100 µM (inactive)	28.2 µM (inactive)	> 100 µM (inactive)	> 100 µM (inactive)	> 100 µM (inactive)	20.8 µM (inactive)	> 100 µM	> 100 µM (inactive)		
C=CC[N+](CCO)(CCO)CCCCCCCCCCCCCCCCCC	9.25 µM (inactive)		2.96 µM (inactive)		12.9 µM (inactive)	3.33 µM (inactive)	1.61 µM (inactive)	2.75 µM (inactive)	4.05 µM (inactive)	10.9 µM (inactive)	6.24 µM (inactive)	1.5 µM (inactive)	3.08 µM (inactive)	4.41 µM (inactive)	14 µM (inactive)	2.43 µM (inactive)	12.8 µM	3.36 µM (inactive)	7.1 µM (inactive)	
COc1ccc2cc(/C=N\NC(=O)Nc3cccc4ccccc34)ccc2c1	24 µM (inactive)	12.9 µM (inactive)	14.6 µM (inactive)	33.4 µM (inactive)	33 µM (inactive)	52.6 µM (inactive)	34.1 µM (inactive)	33.9 µM (inactive)	17.9 µM (inactive)		74 µM (inactive)		39.2 µM (inactive)		69.5 µM (inactive)	11.1 µM (inactive)	67.5 µM	46.7 µM (inactive)	20.3 µM (inactive)	58.2 µM (inactive)
